Target: T1, MaNifB (Methanosarcina acetivorans, UniProt Q8TIF7)
T1 sequence (Q8TIF7 1-323): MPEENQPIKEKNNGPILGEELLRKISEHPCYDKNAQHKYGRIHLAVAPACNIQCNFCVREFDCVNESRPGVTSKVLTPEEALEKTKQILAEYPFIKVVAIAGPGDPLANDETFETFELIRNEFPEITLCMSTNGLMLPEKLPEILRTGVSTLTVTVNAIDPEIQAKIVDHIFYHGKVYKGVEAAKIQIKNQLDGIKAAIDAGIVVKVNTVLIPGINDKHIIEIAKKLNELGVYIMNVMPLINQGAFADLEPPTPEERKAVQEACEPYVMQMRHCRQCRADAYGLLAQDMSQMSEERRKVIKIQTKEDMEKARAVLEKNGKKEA
Conditions: K-cluster-loaded MaNifB; dithionite-reduced or IDS-oxidized

C[S+](CC[C@H](N)C(=O)O)C[C@H]1O[C@@H](n2cnc3c(N)ncnc32)[C@H](O)[C@@H]1O (stereo partly shown) [SAM]
CW EPR and 3-pulse ESEEM of K- to L*-cluster conversion: SAM-treated MaNifB (designated MaNifB-L*) displayed a distinct change in the line-shape

Reference: article PMC8629924 (Nature chemistry, 2021)
